Consider 2 compounds from article PMC5687316 (Acta Pharmaceutica Sinica. B, 2017).

As usually defined, the fraction unbound is free concentration divided by total concentration. Read a low fraction unbound as little free substance. What is called Ki is a measure of affinity in units of concentration, obtained from inhibition or displacement. As usually defined, the IC50 is the concentration that inhibits the measured activity by half.

Structures can show the parent of a compound that is named as a salt.

Series [1] deals with T1, UGT1A1 in HLMs (Homo sapiens, UniProt P22309).
T1 sequence (P22309 26-533): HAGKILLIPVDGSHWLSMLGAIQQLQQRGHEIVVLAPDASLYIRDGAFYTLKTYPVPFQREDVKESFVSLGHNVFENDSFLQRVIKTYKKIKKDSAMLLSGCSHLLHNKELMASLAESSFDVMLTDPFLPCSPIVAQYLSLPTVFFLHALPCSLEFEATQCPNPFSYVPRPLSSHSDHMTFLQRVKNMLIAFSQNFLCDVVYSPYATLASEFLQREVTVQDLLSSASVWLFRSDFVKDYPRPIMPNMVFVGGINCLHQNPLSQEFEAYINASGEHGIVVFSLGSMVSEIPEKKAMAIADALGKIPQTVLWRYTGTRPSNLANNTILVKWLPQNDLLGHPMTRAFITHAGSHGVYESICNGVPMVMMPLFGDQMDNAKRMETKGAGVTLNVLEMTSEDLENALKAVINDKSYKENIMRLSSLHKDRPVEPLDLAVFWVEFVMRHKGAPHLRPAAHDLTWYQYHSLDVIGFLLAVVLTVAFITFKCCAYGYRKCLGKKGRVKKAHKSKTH
In kind it is biochemical. To be noted: for Inhibition type: HLM, Lineweaver-Burk and Dixon plots; for time dependence of UGT1A1 inhibition: data not shown; for phase II metabolites of the inhibitor in the incubations: UGT1A1/HLM incubations with UDPGA.

A short description of series [2]: Maximum plasma concentration in humans after oral administration. To be noted: human, calculated as Cmax × fu; icotinib 125 mg × 3 daily, erlotinib 150 mg.
Series [3] can be described thus: Nonspecific binding to HLMs. Format: in vitro ADME, human. The conditions noted are these: HLMs 0.2 mg/mL.
The target of series [4] is T2, UGT1A1 (Homo sapiens, UniProt P22309).
T2 sequence (P22309 26-533): T1 sequence (P22309 26-533)
Kind of series: Inhibition of NCHN-4-O-glucuronidation in recombinant human UGT1A1. The conditions noted are these: for activity at 50 min, 10 µmol/L: human, recombinant human UGT1A1, pH 7.4, probe NCHN (NCHN-4-O-glucuronidation); for Inhibition type: recombinant human UGT1A1, Lineweaver-Burk and Dixon plots. Format: biochemical.

A short description of series [5]: Binding to human plasma.

In the case of `C#Cc1cccc(Nc2ncnc3cc(OCCOC)c(OCCOC)cc23)c1` [Erlotinib], in series [1], the Inhibition type entry is given as “Noncompetitive” and the “phase II metabolites of the inhibitor in the incubations” value is “no phase II metabolites”. In series [1] (HLMs), the “time dependence of UGT1A1 inhibition” value is “not time-dependent”. Also, the “Cmax,u” value in series [2] is 550 nM. In series [3], the “binding to HLMs” value is listed as “negligible binding”. In addition, in series [4], the activity at 50 min, 10 µmol/L was 19% and the Inhibition type result is recorded as “Noncompetitive”. In series [5], the fraction unbound was 0.09.

Turning to `C#Cc1cccc(Nc2ncnc3cc4c(cc23)OCCOCCOCCO4)c1` [Icotinib, 4-[(3-ethynylphenyl)amino]-6,7-benzo-12-crown-4-quinazoline hydrochloride], in series [1], the affinity corresponds to a Ki of 8.55 µM, the Inhibition type entry is “Noncompetitive” and the “phase II metabolites of the inhibitor in the incubations” value is reported as “no phase II metabolites”. In addition, in series [1] (HLMs, NCHN-O-glucuronidation), the “fold difference in Ki between icotinib and erlotinib” value is “about 7 fold”. Also, the “time dependence of UGT1A1 inhibition” value in series [1] (HLMs) is given as “not time-dependent”. In series [1] (IC50, HLM 0.2 mg/mL, NCHN-4-O-glucuronidation), this compound showed an IC50 of 5.15 ± 0.28 µM. Besides, the “Cmax,u” value in series [2] is 530 nM. The “binding to HLMs” value in series [3] is recorded as “negligible binding”. Also, in series [4], the Ki came to 10 µM; the activity at 50 min, 10 µmol/L was determined as 36%; the Inhibition type entry was “Noncompetitive”. In series [4] (IC50, recombinant human UGT1A1 0.06 mg/mL, NCHN-4-O-glucuronidation), the IC50 was determined as 8.76 ± 0.78 µM. The compound also displayed a fraction unbound in series [5] of 0.11.
